The text below walks through data of patent US12448376B2, “Phenothiazine ferroptosis inhibitor, preparation method therefor and application thereof” (CHENGDU HENGHAO INNOVATIVE SCIENCE AND TECHNOLOGY CO., LTD., priority 2019, dated 2025).

The test system of series [1] is middle cerebral artery occlusion (MCAO) cerebral stroke model in rat. As to the kind of experiment: Rat MCAO cerebral stroke model, single administration, TTC staining. Type of series: in vivo, SD rats. As to conditions: for Infarct area weight: tail vein injection within 10 min of reperfusion; for Infarct area weight / Infarct size: 24 h after reperfusion; for Inhibition rate of cerebral infarction / Infarct size: tail vein injection; for Inhibition rate of cerebral infarction: calculated from infarct size against model control; for Infarct size: infarct tissue weight as percentage of whole brain. The procedure: Through the middle cerebral artery occlusion (MCAO) cerebral stroke model (also known as cerebral ischemia model) in rat, the therapeutic effects of the compounds of the present disclosure at different doses and single administration on ischemic cerebral stroke in SD rats were studied. […] The ischemic rats were placed at room temperature to keep their body temperature at 37° C. After 90 min, the suture was pulled out for reperfusion. […] After 24 h of reperfusion, the animals were scored by NSS to evaluate neurological function, and then the animals were dissected to remove the brain for TTC staining. By determining the size of cerebral infarction and calculating the inhibition rate, the therapeutic effects of the test compounds on ischemic cerebral stroke in rats were evaluated comprehensively. […] The percentage of infarct tissue weight in the whole brain was used as the infarct size (%), and the inhibition rate (%) of each drug treatment group was calculated based on the infarct size. The inhibition rate was calculated with the following formula: [formula] 2.

Series [2] has as its target T1, human hERG ion channel (Homo sapiens, UniProt Q12809).
T1 construct: expressed in transfected cells; host or cells: HEK293 cells stably expressing hERG
Nature of the series: hERG whole-cell patch clamp in HEK293 cells. It is filed as cell-based. As to conditions: for IC50: hERG tail current, HEK293 cells, 0.3-30 μM, room temperature. The procedure: Effect of Compounds of the Present Disclosure on Human hERG Ion Channel Expressed in HEK293 Cells at Steady State Determined by Patch Clamp
The hERG ion channel steady-state expressing HEK293 cells were transferred to a perfusion tank and perfused with extracellular fluid at room temperature. Each cell was used as a control. All test compounds were dissolved by shaking with dimethyl sulfoxide and prepared as serial concentrations of 0.3 μM, 1 μM, 3 μM, 10 μM and 30 μM. The test compounds were perfused using a perfusion system utilizing their own gravity. At least two cells were tested for each concentration. After the current was stable (or 5 min), the current magnitude changes before and after the compound was used were compared to calculate the blocking effect of the compound. Test electrodes were pulled with PC-10. Whole-cell patch clamp was used to record, with noise filtered at one-fifth of the sampling frequency. […] This procedure was repeated every 15 seconds. hERG tail currents were pure hERG currents. After the current was stabilized, the administration was performed by continuous extracellular perfusion from low concentration to high concentration. Starting from a low concentration, perfusion was continued until the drug effect was stable, and then perfusion of the next concentration was performed.
Stimulus delivery and signal acquisition were performed by the Patch Master software. The signal was amplified with a patch clamp amplifier with a filtering of 10 KHz. Fit Master, EXCEL, Graph Pad Prism and SPSS 21.0 were used for further data analysis and curve fitting. In data processing, when judging the blocking effect on hERG the peak value of the tail current and its baseline were corrected. The effect of each compound at different concentrations was expressed by the inhibition rate of the tail current. Inhibition rate %=100×(peak value of tail current before administration-peak value of tail current after administration)/peak value of tail current before administration
IC50 values were fitted by the Hill equation: […]
Background: The hERG channel carries a current that helps repolarise heart muscle cells.

Series [3] has as its system fibrosarcoma cell line. As to the kind of experiment: Ferroptosis screening model, MTT cell viability assay with Erastin induction. It is filed as cell-based. The procedure:
In this example, in order to study the inhibitor of ferroptosis, a screening model for ferroptosis was constructed in house, and the details are as follows:
The screening model for ferroptosis mainly used the MTT cell viability assay. First, the fibrosarcoma cell line was cultured in a dish, and the cells in the logarithmic growth phase were seeded in a 96-well plate in specific numbers (3000-10000 cells/well), 100 μL per well, and then cultured in an incubator at 37° C. and 5% CO2 to allow the cells to adhere. After 24 h, 100 μL of compounds at certain concentrations prepared in the indicated medium and the ferroptosis inducer Erastin (final concentration of 10 μM) were added, and wells in triplicate were set up for each compound to ensure the accuracy of the results. A negative control group, positive control group (5 μM of ferrostain-1), blank control group and solvent control group were also set. After dosing, cells were placed in the incubator and cultured for 72 h. On the day of the MTT test, MTT test solution (5 mg/mL MTT solution dissolved in physiological saline, stored at 4° C. in the dark) was pre-prepared, and 20 μL was added to each well. Cells were placed in the incubator and cultured for another 2-4 h. Then, 50 μL of 20% SDS solution (dissolved in MiliiQ water, added with 1% concentrated hydrochloric acid) was added to each well, and cells were placed in the incubator overnight. The next day, the absorbance value at 570 nm was detected with a microplate reader to calculate the inhibition rate of the drug on ferroptosis. Generally, the absorbance value of the control group should be between 0.8-1.2 as a normal value.
The curve of inhibition rate change was fitted using Graph Pad Prism 5 software to obtain EC50.
A general note: Tetrazolium assays rely on reduction of a dye to a coloured formazan, in cell work by metabolically active cells.

The nature of series [4]: Hemolysis reaction (statement only, no method).
Where [5] appears, read: 72 h, inhibition of ferroptosis induced by Erastin 10 μM, MTT; average of three tests.
[6] abbreviates: inhibition of ferroptosis induced by Erastin 10 μM, 72 h, MTT; average of three tests.
Setting [7] is: summary of Table 1, compared with positive drug ferrostain-1.

T1 sequence (Q12809 whole entry): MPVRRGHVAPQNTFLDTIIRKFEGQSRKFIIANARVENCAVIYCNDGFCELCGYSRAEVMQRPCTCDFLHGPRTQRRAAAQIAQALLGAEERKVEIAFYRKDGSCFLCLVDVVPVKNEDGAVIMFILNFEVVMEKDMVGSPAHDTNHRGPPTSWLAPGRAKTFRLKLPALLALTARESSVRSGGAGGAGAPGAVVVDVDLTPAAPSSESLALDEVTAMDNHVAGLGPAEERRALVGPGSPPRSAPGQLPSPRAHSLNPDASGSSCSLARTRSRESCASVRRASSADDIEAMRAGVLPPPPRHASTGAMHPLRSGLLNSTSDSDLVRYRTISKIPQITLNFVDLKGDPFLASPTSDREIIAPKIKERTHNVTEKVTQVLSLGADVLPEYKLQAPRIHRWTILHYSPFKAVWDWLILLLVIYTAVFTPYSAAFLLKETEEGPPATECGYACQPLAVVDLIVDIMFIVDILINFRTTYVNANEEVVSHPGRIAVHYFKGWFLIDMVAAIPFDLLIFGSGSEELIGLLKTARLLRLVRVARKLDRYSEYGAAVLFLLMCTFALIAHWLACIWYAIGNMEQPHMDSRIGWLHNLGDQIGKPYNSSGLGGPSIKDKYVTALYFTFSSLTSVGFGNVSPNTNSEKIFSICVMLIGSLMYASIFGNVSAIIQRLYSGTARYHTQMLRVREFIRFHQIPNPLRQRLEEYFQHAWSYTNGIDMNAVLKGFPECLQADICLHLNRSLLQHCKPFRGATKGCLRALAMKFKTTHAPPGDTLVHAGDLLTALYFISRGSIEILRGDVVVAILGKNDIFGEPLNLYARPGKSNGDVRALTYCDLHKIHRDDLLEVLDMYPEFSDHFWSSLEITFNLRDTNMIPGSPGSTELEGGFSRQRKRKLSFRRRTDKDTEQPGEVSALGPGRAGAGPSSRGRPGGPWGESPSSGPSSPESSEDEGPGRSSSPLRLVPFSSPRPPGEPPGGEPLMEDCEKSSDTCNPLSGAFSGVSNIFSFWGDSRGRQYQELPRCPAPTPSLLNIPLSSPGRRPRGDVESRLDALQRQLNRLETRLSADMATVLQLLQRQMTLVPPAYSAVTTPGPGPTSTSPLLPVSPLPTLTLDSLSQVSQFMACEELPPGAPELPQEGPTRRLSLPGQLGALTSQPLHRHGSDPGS

In the case of `CC(c1ccc(N2CCN(C)CC2)cc1)c1ccc2c(c1)Nc1ccccc1S2` (stereo not drawn) [Comparative Compound 1, reference compound], in series [1] (2.5 mg/kg), the Infarct area weight amounted to 0.14 ± 0.07 g and the “Inhibition rate of cerebral infarction” value is reported as 19.0%. Moreover, in series [1] (5 mg/kg), the Infarct area weight came to 0.11 ± 0.05 g and the “Inhibition rate of cerebral infarction” value was 33.6%.
Usually IC50 stands for the midpoint of a concentration-inhibition curve. A high value points to weaker potency. The compound `C=C(c1ccc(S(=O)(=O)NC2CCN(C)CC2)cc1)c1ccc2c(c1)Nc1ccccc1S2` [Comparative Compound 2, reference compound] showed an IC50 in series [2] of 710 nM.
One may read the EC50 as the midpoint of the concentration-response curve. High values mean weaker potency, low ones greater potency. Regarding `C=C(c1ccc2c(c1)Nc1ccccc1S2)c1cnc2c(cnn2CC2CCOCC2)c1` [Compound 2], a half-maximal effect in series [3] (setting [5]) (EC50) was put at 38 nM.
`C=C(c1ccc2c(c1)Nc1ccccc1S2)c1cnc2c(cnn2CC2CCN(C(=O)OC(C)(C)C)CC2)c1` [Compound 4]: it took 76 nM to reach a half-maximal effect in series [3] (setting [5]) (EC50).
Same read-out and setting: as for `C=C(c1ccc2c(c1)Nc1ccccc1S2)c1ccc2c(C(=O)NCCN3CCOCC3)c[nH]c2c1` [Compound 6], the figure is 15 nM.
`C=C(c1ccc2c(c1)Nc1ccccc1S2)c1cn2ccnc2c(N2CCOCC2)n1` [Compound 7] returned an EC50 in series [3] (setting [5]) of 24 nM.
The compound `C=C(c1ccc2c(c1)Nc1ccccc1S2)c1cnc2c(cnn2C2CN(C(=O)OC(C)(C)C)C2)c1` [Compound 8] came in with an EC50 in series [3] (setting [6]) of 55 nM.
`C=C(c1ccc2c(c1)Nc1ccccc1S2)c1ccc2cc(C(=O)NCCN3CCOCC3)[nH]c2c1` [Compound 9] displayed an EC50 in series [3] (setting [5]) of 12 nM. That is a double-digit nanomolar value.
In series [3] (setting [5]), `C=C(c1ccc2c(c1)Nc1ccccc1S2)c1ccc2c(C=O)c[nH]c2c1` [Compound 10] gave an EC50 of 15 nM.
On the same count and under the same terms, the same measure for `C=C(c1ccc2c(c1)Nc1ccccc1S2)c1ccc2c(c1)SCC(=O)N2` [Compound 11]: 33 nM.
`C=C(c1ccc2c(c1)Nc1ccccc1S2)c1ccc2c(c1)OCCO2` [Compound 13] showed an EC50 in series [3] (setting [5]) of 37 nM.
With `C=C(c1ccc2c(c1)Nc1ccccc1S2)c1ccc2ncccc2c1` [Compound 14], the EC50 in series [3] (setting [5]) amounted to 6 nM. Besides, the “inhibitory effects on ferroptosis (in words)” value in series [3] (setting [7]) is “excellent inhibitory effects on ferroptosis, significantly better than the positive drug ferrostain-1”. For the same compound, in series [1] (2.5 mg/kg), the Infarct area weight amounted to 0.15 ± 0.07 g, the “Inhibition rate of cerebral infarction” value is 14.0% and the Infarct size amounted to 12.11 ± 5.69%. For the same compound, in series [1] (5 mg/kg), the Infarct area weight is 0.12 ± 0.05 g, the “Inhibition rate of cerebral infarction” value is given as 29.3% and the Infarct size was determined as 9.95 ± 4.69%. The “range of necrosis of brain tissue lesions (in words)” value in series [1] (high and low dose administration groups) was “reduce the range of necrosis of brain tissue lesions”. Also, the “effect on the human hERG ion channel (in words)” value in series [2] (HEK293 cells in a steady state) is “no significant effect”. The compound further registered an IC50 in series [2] of over 30000 nM. For the same compound, the “improvement of cardiac safety compared with compound 59 of CN111574474A” value in series [2] (ratio of hERG IC50 values) is given as “about 50 times”. Also, the “hemolysis reaction (in words)” value in series [4] is “no hemolysis reaction”.
`C=C(c1ccc2c(c1)Nc1ccccc1S2)c1ccc2c(c1)OC(F)(F)O2` [Compound 15] had a concentration for a half-maximal effect (EC50) in series [3] (setting [5]) of 10 nM.
Compound `C=C(c1ccc2c(c1)CCN2C(C)=O)c1ccc2c(c1)Nc1ccccc1S2` [Compound 16] displayed an EC50 in series [3] (setting [5]) of 10 nM.
On to `C=C(c1cnc2c(c1)CCN2)c1ccc2c(c1)Nc1ccccc1S2` [Compound 17], for which the response in series [3] (setting [5]) was half-maximal at 89 nM (EC50). This EC50 lies about 8.9-fold higher than the previous one.
The compound `C=C(c1ccc2c(c1)Nc1ccccc1S2)c1cnc2c(cnn2C2CCOC2)c1` (stereo not drawn) [Compound 19] displayed an EC50 in series [3] (setting [6]) of 13 nM.
On to `C=C(c1ccc2c(c1)Nc1ccccc1S2)c1cnc2c(cnn2C2CCN(C)CC2)c1` [Compound 20], for which, in series [3] (setting [5]), a half-maximal effect (EC50) was put at 0.2 nM. In series [3] (setting [7]), the “inhibitory effects on ferroptosis (in words)” value was “excellent inhibitory effects on ferroptosis, significantly better than the positive drug ferrostain-1”.
Take `C=C(c1ccc2c(c1)Nc1ccccc1S2)c1cnc2nc(C(=O)NCCN(C)C)cn2c1` [Compound 22]: the EC50 in series [3] (setting [5]) amounted to 14 nM.
Still for that read-out and setting: the same measure for `C=C(c1ccc2c(c1)Nc1ccccc1S2)c1cn2cc(C(=O)NC3CCOCC3)nc2cn1` [Compound 23]: 67 nM; for `C=C(c1ccc2c(c1)Nc1ccccc1S2)c1cn2cc(C(=O)NCC3CCOCC3)nc2cn1` [Compound 24]: 56 nM; for `C=C(c1ccc2c(c1)Nc1ccccc1S2)c1cn2cc(C(=O)N[C@H](C)c3cccc4ccccc34)nc2cn1` [Compound 25]: 55 nM.
With `C=C(c1ccc2c(c1)Nc1ccccc1S2)c1cn2cc(C(=O)N[C@H](C)c3ccccc3)nc2cn1` [Compound 26], the EC50 in series [3] (setting [5]) was determined as 76 nM. The EC50 values of the last two compounds are within 1.5-fold of each other.
In turn, `C=C(c1ccc2c(c1)Nc1ccccc1S2)c1cnc2c(cnn2CCOC)c1` [Compound 27] had an EC50 in series [3] (setting [5]) of 73 nM.
In series [3] (setting [5]), `C=C(c1ccc2c(c1)Nc1ccccc1S2)c1cnc2c(cnn2C2CCN(C(=O)OC(C)(C)C)CC2)c1` [Compound 29] came in with an EC50 of 29 nM.
Compound `C=C(c1ccc2c(c1)Nc1ccccc1S2)c1cnc2c(cnn2C2CN(C(=O)OC(C)(C)C)C2)c1` [Compound 30] had an EC50 in series [3] (setting [5]) of 92 nM.
On the same count and under the same terms, as for `C=C(c1ccc2c(c1)Nc1ccccc1S2)c1cnc2[nH]ncc2c1` [Compound 31], the figure is 11 nM.
In series [3] (setting [6]), `C=C(c1ccc2c(c1)Nc1ccccc1S2)c1cnc2c(cnn2C2CCOC2)c1` (stereo not drawn) [Compound 32] came in with an EC50 of 50 nM.
In turn, `C=C(c1ccc2c(c1)Nc1ccccc1S2)c1cnc2c(cnn2CC)c1` [Compound 33] came in with an EC50 in series [3] (setting [5]) of 67 nM.
On the same count and under the same terms, as for `C=C(c1ccc2c(c1)Nc1ccccc1S2)c1cnc2c(ccn2C)c1` [Compound 34], the figure is 42 nM.
Same read-out and setting: the same measure for `C=C(c1ccc2c(c1)Nc1ccccc1S2)c1cnc2sccc2c1` [Compound 35]: 74 nM; for `C=C(c1ccc2c(c1)Nc1ccccc1S2)c1cnc2c(cnn2C2CCNCC2)c1` [Compound 36]: 16 nM.
In turn, `CCOC(=O)c1ccc(NC2CCCCC2)c(N)c1` [Ferrostain-1, Ferrostatin-1, reference compound] displayed an EC50 in series [3] (72 h) of 60 nM.
Consider `CCCCC1OC(=O)c2ccccc21` (stereo not drawn) [Positive drug, butylphthalide, reference compound], for which, in series [1] (5 mg/kg), the Infarct area weight turned out to be 0.18 ± 0.09 g, the “Inhibition rate of cerebral infarction” value is listed as 1.1% and the Infarct size is reported as 13.93 ± 6.97%.
